# Test results from ChEMBL document CHEMBL3244146, “Pyranenamines: a new series of antiallergic compounds” (1979).
# System: Rattus norvegicus
# Assay: Antiallergic activity in rat assessed as inhibition of egg albumin-induced passive cutaneous anaphylaxis at 0.5 mg/kg, iv treated for 30 secs followed by egg albumin-challenge measured after 30 mins relative to control
# Type: functional
# Details: 0.5 h
row,SMILES,inhibition in vivo at 0.5 mg/kg
1,CC(=O)C1=C(O)/C(=C(\C)Nc2ccc(Br)cc2)C(=O)OC1=O,0%
2,CC(=O)C1=C(O)/C(=C(\C)Nc2cccc(S(N)(=O)=O)c2)C(=O)OC1=O,45%
3,CC(=O)C1=C(O)/C(=C(\C)Nc2ccc(S(N)(=O)=O)cc2)C(=O)OC1=O,12%
4,CC(=O)Oc1ccc(N/C(C)=C2\C(=O)OC(=O)C(C(C)=O)=C2O)cc1,41%
5,CCC(=O)Oc1ccc(N/C(C)=C2\C(=O)OC(=O)C(C(C)=O)=C2O)cc1,16%
6,CCCCCCC(=O)Oc1ccc(N/C(C)=C2\C(=O)OC(=O)C(C(C)=O)=C2O)cc1,21%
7,CC(=O)C1=C(O)/C(=C(\C)Nc2ccc(OC(=O)C(C)(C)C)cc2)C(=O)OC1=O,3%
8,CC(=O)C1=C(O)/C(=C(\C)Nc2ccc(OC(N)=O)cc2)C(=O)OC1=O,19%
9,CC(=O)C1=C(O)/C(=C(\C)Nc2ccc(OC(=O)NC3C=CC=CC=C3)cc2)C(=O)OC1=O,22%
10,CC(=O)C1=C(O)/C(=C(\C)Nc2cccc(OCC(=O)O)c2)C(=O)OC1=O,6%
11,CNc1cccc(N/C(C)=C2\C(=O)OC(=O)C(C(C)=O)=C2O)c1,-8%
12,CC(=O)C1=C(O)/C(=C(\C)Nc2cccc(NC(=N)NS(=O)(=O)c3ccc(C)cc3)c2)C(=O)OC1=O,2%
13,CC(=O)C1=C(O)/C(=C(\C)Nc2cccc(NC=O)c2)C(=O)OC1=O,22%
14,CC(=O)Nc1ccccc1N/C(C)=C1\C(=O)OC(=O)C(C(C)=O)=C1O,-12%
15,CCCC(=O)Nc1cccc(N/C(C)=C2\C(=O)OC(=O)C(C(C)=O)=C2O)c1,58%
16,CC(=O)C1=C(O)/C(=C(\C)Nc2cccc(N3C(=O)CCC3=O)c2)C(=O)OC1=O,22%
17,CC(=O)C1=C(O)/C(=C(\C)Nc2cccc(NS(C)(=O)=O)c2)C(=O)OC1=O,28%
18,CC(=O)C1=C(O)/C(=C(\C)Nc2ccc(NS(C)(=O)=O)cc2)C(=O)OC1=O,20%

row,SMILES,inhibition in vivo at 0.5 mg/kg
1,CC(=O)C1=C(O)/C(=C(\C)Nc2ccc(NS(=O)(=O)c3ccccc3)cc2)C(=O)OC1=O,4%
2,CC(=O)NCc1cccc(N/C(C)=C2\C(=O)OC(=O)C(C(C)=O)=C2O)c1,4%
3,CC(=O)C1=C(O)/C(=C(\C)Nc2cccc(C(N)=O)c2)C(=O)OC1=O,-16%
4,CNC(=O)c1cccc(N/C(C)=C2\C(=O)OC(=O)C(C(C)=O)=C2O)c1,24%
5,CCNC(=O)c1cccc(N/C(C)=C2\C(=O)OC(=O)C(C(C)=O)=C2O)c1,-4%
6,CC(=O)C1=C(O)/C(=C(\C)Nc2cccc(C(=O)N(C)C)c2)C(=O)OC1=O,10%
7,CC(=O)C1=C(O)/C(=C(\C)Nc2cccc(C(=O)NC3C(=O)NC(=O)NC3=O)c2)C(=O)OC1=O,39%
8,CNc1cc(N/C(C)=C2\C(=O)OC(=O)C(C(C)=O)=C2O)ccc1O,-6%
9,CC(=O)NCc1cc(N/C(C)=C2\C(=O)OC(=O)C(C(C)=O)=C2O)ccc1O,1%
10,CC(=O)C1=C(O)/C(=C(\C)Nc2ccc3oc(C)nc3c2)C(=O)OC1=O,13%
11,COc1ccc(N/C(C)=C2\C(=O)OC(=O)C(C(C)=O)=C2O)cc1NC(C)=O,27%
12,CNC(=O)c1cc(N/C(C)=C2\C(=O)OC(=O)C(C(C)=O)=C2O)ccc1O,38%
13,CC(=O)C1=C(O)/C(=C(\C)Nc2ccc(O)c(NS(C)(=O)=O)c2)C(=O)OC1=O,38%
14,CC(=O)C1=C(O)/C(=C(\C)Nc2cc(C(F)(F)F)cc(C(F)(F)F)c2)C(=O)OC1=O,14%
15,CC(=O)C1=C(O)/C(=C(\C)Nc2cc(NS(=O)(=O)c3ccccc3)cc(NS(=O)(=O)c3ccccc3)c2)C(=O)OC1=O,-9%
16,CC(=O)C1=C(O)/C(=C(\C)Nc2c(O)cccc2O)C(=O)OC1=O,-22%
17,CC(=O)C1=C(O)/C(=C(\C)N2CCOCC2)C(=O)OC1=O,2%
